Measurements as given in PubChem BioAssay (NCI).
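Where inhibition never reached the appropriate level, the endpoint shown equals the highest concentration tested. Otherwise, values were interpolated linearly from a five-concentration, 48-hour dose response in 96-well plates. Definition used: TGI = concentration required for complete inhibition of growth.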

Columns and labels:
Assay in all cases: NCI anticancer screen, dose series, 48 h
UACC-62 melanoma = test system: UACC-62 melanoma
CCRF-CEM leukemia = test system: CCRF-CEM leukemia
OVCAR-4 ovarian = test system: OVCAR-4 ovarian
UO-31 renal = test system: UO-31 renal
NCI-H23 lung = test system: NCI-H23 lung
MOLT-4 leukemia = test system: MOLT-4 leukemia
HOP-92 NSCLC = test system: HOP-92 NSCLC
MALME-3M melanoma = test system: MALME-3M melanoma
SNB-19 CNS = test system: SNB-19 CNS
OVCAR-3 ovarian = test system: OVCAR-3 ovarian
RPMI-8226 leukemia = test system: RPMI-8226 leukemia
COLO 205 colon = test system: COLO 205 colon
SR leukemia = test system: SR leukemia
HT29 colon = test system: HT29 colon
DLD-1 colon = test system: DLD-1 colon
DMS 114 small cell lung = test system: DMS 114 small cell lung
DMS 273 small cell lung = test system: DMS 273 small cell lung
SF-295 CNS = test system: SF-295 CNS
NCI-H460 lung = test system: NCI-H460 lung
SK-MEL-5 melanoma = test system: SK-MEL-5 melanoma
SK-MEL-28 melanoma = test system: SK-MEL-28 melanoma
OVCAR-5 ovarian = test system: OVCAR-5 ovarian
U251 CNS = test system: U251 CNS
786-0 renal = test system: 786-0 renal
HOP-18 NSCLC = test system: HOP-18 NSCLC
HCT-15 colon = test system: HCT-15 colon
M14 melanoma = test system: M14 melanoma
A549 NSCLC = test system: A549 NSCLC
ACHN renal = test system: ACHN renal
SN12C renal = test system: SN12C renal
M19-MEL melanoma = test system: M19-MEL melanoma
CAKI-1 renal = test system: CAKI-1 renal
HCC-2998 colon = test system: HCC-2998 colon
IGROV1 ovarian = test system: IGROV1 ovarian
KM20L2 colon = test system: KM20L2 colon
NCI-H226 lung = test system: NCI-H226 lung
SF-268 CNS = test system: SF-268 CNS
K-562 leukemia = test system: K-562 leukemia
SK-OV-3 ovarian = test system: SK-OV-3 ovarian
HL-60(TB) leukemia = test system: HL-60(TB) leukemia
LOX IMVI melanoma = test system: LOX IMVI melanoma
SW-620 colon = test system: SW-620 colon
UACC-257 melanoma = test system: UACC-257 melanoma
HCT-116 colon = test system: HCT-116 colon
HOP-62 NSCLC = test system: HOP-62 NSCLC
A498 renal = test system: A498 renal
LXFL 529 NSCLC = test system: LXFL 529 NSCLC
RXF 393 renal = test system: RXF 393 renal
NCI-H522 lung = test system: NCI-H522 lung
SF-539 CNS = test system: SF-539 CNS
SK-MEL-2 melanoma = test system: SK-MEL-2 melanoma
TK-10 renal = test system: TK-10 renal
SNB-75 CNS = test system: SNB-75 CNS
OVCAR-8 ovarian = test system: OVCAR-8 ovarian
EKVX NSCLC = test system: EKVX NSCLC
XF 498 CNS = test system: XF 498 CNS
SNB-78 CNS = test system: SNB-78 CNS
KM12 colon = test system: KM12 colon

What does the source list for `CCN(CC)CCCCC1CCN(CC(=O)N2CC(C)C(=O)Nc3ccccc32)CC1` (stereo not given)?
TGI (UACC-62 melanoma): > 100 µM; TGI (CCRF-CEM leukemia): > 100 µM; TGI (OVCAR-4 ovarian): > 100 µM; TGI (UO-31 renal): > 100 µM; TGI (NCI-H23 lung): > 100 µM; TGI (MOLT-4 leukemia): > 100 µM; TGI (HOP-92 NSCLC): > 100 µM; TGI (MALME-3M melanoma): > 100 µM; TGI (SNB-19 CNS): > 100 µM; TGI (OVCAR-3 ovarian): > 100 µM; TGI (RPMI-8226 leukemia): > 100 µM; TGI (COLO 205 colon): > 100 µM; TGI (SR leukemia): > 100 µM; TGI (HT29 colon): > 100 µM; TGI (DLD-1 colon): > 100 µM; TGI (DMS 114 small cell lung): > 100 µM; TGI (DMS 273 small cell lung): > 100 µM; TGI (SF-295 CNS): > 100 µM; TGI (NCI-H460 lung): > 100 µM; TGI (SK-MEL-5 melanoma): > 100 µM; TGI (SK-MEL-28 melanoma): > 100 µM; TGI (OVCAR-5 ovarian): > 100 µM; TGI (U251 CNS): > 100 µM; TGI (786-0 renal): > 100 µM; TGI (HOP-18 NSCLC): > 100 µM; TGI (HCT-15 colon): > 100 µM; TGI (M14 melanoma): > 100 µM; TGI (A549 NSCLC): > 100 µM; TGI (ACHN renal): > 100 µM; TGI (SN12C renal): > 100 µM; TGI (M19-MEL melanoma): > 100 µM; TGI (CAKI-1 renal): > 100 µM; TGI (HCC-2998 colon): > 100 µM; TGI (IGROV1 ovarian): > 100 µM; TGI (KM20L2 colon): > 100 µM; TGI (NCI-H226 lung): > 100 µM; TGI (SF-268 CNS): > 100 µM; TGI (K-562 leukemia): > 100 µM; TGI (SK-OV-3 ovarian): > 100 µM; TGI (HL-60(TB) leukemia): > 100 µM; TGI (LOX IMVI melanoma): > 100 µM; TGI (SW-620 colon): > 100 µM; TGI (UACC-257 melanoma): > 100 µM; TGI (HCT-116 colon): > 100 µM; TGI (HOP-62 NSCLC): > 100 µM; TGI (A498 renal): > 100 µM; TGI (LXFL 529 NSCLC): > 100 µM

`CCCC(=O)c1c(NOC2OC(COC(C)=O)C(OC(C)=O)C(OC(C)=O)C2OC(C)=O)nc(OC)n(C)c1=O` (stereo not given) was tested. Which TGI (UACC-62 melanoma) did it give?
Its TGI is over 100 µM.

And the TGI (CCRF-CEM leukemia)?
The TGI was over 100 µM.

What about the TGI (OVCAR-4 ovarian) of the same compound?
Its TGI is over 100 µM.

And the TGI (UO-31 renal)?
Its TGI is 89 µM.

And the TGI (NCI-H23 lung)?
Its TGI is over 100 µM.

And the TGI (RXF 393 renal)?
Its TGI is over 100 µM.

And the TGI (NCI-H522 lung)?
Its TGI is over 100 µM.

What about the TGI (SF-539 CNS) of the same compound?
The TGI was over 100 µM.

What about the TGI (MOLT-4 leukemia) of the same compound?
Its TGI is over 100 µM.

And the TGI (SNB-19 CNS)?
Its TGI is over 100 µM.

And the TGI (COLO 205 colon)?
The TGI was over 100 µM.

What about the TGI (SR leukemia) of the same compound?
Its TGI is over 100 µM.

And the TGI (HT29 colon)?
The TGI was over 100 µM.

What about the TGI (DLD-1 colon) of the same compound?
The TGI was over 100 µM.

What about the TGI (DMS 114 small cell lung) of the same compound?
Its TGI is over 100 µM.

What about the TGI (DMS 273 small cell lung) of the same compound?
Its TGI is over 100 µM.

What about the TGI (SF-295 CNS) of the same compound?
Its TGI is over 100 µM.

And the TGI (NCI-H460 lung)?
Its TGI is over 100 µM.

What about the TGI (SK-MEL-5 melanoma) of the same compound?
Its TGI is over 100 µM.

And the TGI (SK-MEL-2 melanoma)?
The TGI was over 100 µM.

What about the TGI (SK-MEL-28 melanoma) of the same compound?
Its TGI is over 100 µM.

And the TGI (OVCAR-5 ovarian)?
The TGI was over 100 µM.

What about the TGI (U251 CNS) of the same compound?
The TGI was over 100 µM.

What about the TGI (786-0 renal) of the same compound?
The TGI was over 100 µM.

What about the TGI (HCT-15 colon) of the same compound?
The TGI was over 100 µM.

What about the TGI (M14 melanoma) of the same compound?
The TGI was over 100 µM.

And the TGI (A549 NSCLC)?
Its TGI is over 100 µM.

And the TGI (TK-10 renal)?
Its TGI is over 100 µM.

And the TGI (SNB-75 CNS)?
Its TGI is over 100 µM.

What about the TGI (ACHN renal) of the same compound?
The TGI was over 100 µM.

What about the TGI (SN12C renal) of the same compound?
The TGI was over 100 µM.

What about the TGI (M19-MEL melanoma) of the same compound?
The TGI was over 100 µM.

And the TGI (OVCAR-8 ovarian)?
Its TGI is over 100 µM.

What about the TGI (HCC-2998 colon) of the same compound?
Its TGI is over 100 µM.

And the TGI (EKVX NSCLC)?
The TGI was over 100 µM.

What about the TGI (XF 498 CNS) of the same compound?
The TGI was over 100 µM.

And the TGI (IGROV1 ovarian)?
The TGI was over 100 µM.

And the TGI (KM20L2 colon)?
Its TGI is over 100 µM.

What about the TGI (NCI-H226 lung) of the same compound?
Its TGI is over 100 µM.

And the TGI (SF-268 CNS)?
Its TGI is over 100 µM.

What about the TGI (K-562 leukemia) of the same compound?
Its TGI is over 100 µM.

What about the TGI (LOX IMVI melanoma) of the same compound?
Its TGI is over 100 µM.

What about the TGI (SW-620 colon) of the same compound?
The TGI was over 100 µM.

And the TGI (SNB-78 CNS)?
The TGI was over 100 µM.

What about the TGI (HCT-116 colon) of the same compound?
The TGI was over 100 µM.

What about the TGI (KM12 colon) of the same compound?
Its TGI is over 100 µM.

What about the TGI (HOP-62 NSCLC) of the same compound?
Its TGI is over 100 µM.

What about the TGI (LXFL 529 NSCLC) of the same compound?
The TGI was over 100 µM.
